Data as given in patent US10669272B2, “Substituted naphthyridinone compounds useful as T cell activators” (BRISTOL-MYERS SQUIBB COMPANY, priority 2018, dated 2020).
Like-named read-outs stand apart in the source and are kept apart here.

Experiments:
Human venous whole blood = assay: Human whole blood IFN-γ assay; type: cell-based; conditions: human whole blood, normalized to 3 μM reference compound with anti-CD3 plus anti-CD28 as 100% activation, read-out: INFg Whole Blood Normalized Agonist EC50;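 note: blood from healthy donors exposed to compound for 1 h before stimulation with anti-CD3 and anti-CD28 at 1 µg/mL each, IFN-γ quantified in supernatant by AlphaLISA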
human DGKα = molecular target: T1, human DGKα (Homo sapiens, UniProt P23743); assay: DGKα LIPGLO assay (extruded liposome substrate), in vitro DGK inhibition; type: biochemical; conditions: liposome (LIPGLO) assay; read-out: DGKa LIPGLO IC50
T1 construct: TVMV protease cleavage site (C); Hexa-His (C); made in house; host or cells: Sf9 insect cells (baculovirus, Bac-to-Bac)
T1 sequence (P23743 with tags, fused parts or gaps): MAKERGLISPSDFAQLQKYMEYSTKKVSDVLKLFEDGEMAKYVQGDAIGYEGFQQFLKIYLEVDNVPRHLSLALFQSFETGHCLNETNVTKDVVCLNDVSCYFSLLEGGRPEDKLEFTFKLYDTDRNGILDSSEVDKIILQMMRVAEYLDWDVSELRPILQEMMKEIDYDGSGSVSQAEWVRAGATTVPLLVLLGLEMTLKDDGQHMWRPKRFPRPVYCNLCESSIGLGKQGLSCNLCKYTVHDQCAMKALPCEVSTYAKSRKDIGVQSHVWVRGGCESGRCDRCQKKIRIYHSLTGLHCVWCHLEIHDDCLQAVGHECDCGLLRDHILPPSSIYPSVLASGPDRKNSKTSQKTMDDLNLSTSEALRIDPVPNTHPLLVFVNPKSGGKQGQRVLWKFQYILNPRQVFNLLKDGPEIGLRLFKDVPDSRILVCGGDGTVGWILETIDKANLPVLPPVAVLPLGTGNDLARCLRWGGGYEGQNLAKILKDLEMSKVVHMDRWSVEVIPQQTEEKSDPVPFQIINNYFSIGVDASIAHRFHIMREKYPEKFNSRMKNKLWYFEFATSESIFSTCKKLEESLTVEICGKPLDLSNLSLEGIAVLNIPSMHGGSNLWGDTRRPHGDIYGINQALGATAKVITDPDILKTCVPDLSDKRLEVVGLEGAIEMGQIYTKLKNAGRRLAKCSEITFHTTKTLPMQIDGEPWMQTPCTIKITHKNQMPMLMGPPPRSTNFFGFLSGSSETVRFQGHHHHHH

human DGKζ = molecular target: T2, human DGKζ (Homo sapiens, UniProt Q13574); assay: DGKζ LIPGLO assay (extruded liposome substrate), in vitro DGK inhibition; type: biochemical; conditions: liposome (LIPGLO) assay; read-out: DGKz LIPGLO IC50
T2 construct: TVMV protease cleavage site (C); Hexa-His (C); made in house; host or cells: Sf9 insect cells (baculovirus, Bac-to-Bac)
T2 sequence (Q13574 with tags, fused parts or gaps isoform Q13574-4): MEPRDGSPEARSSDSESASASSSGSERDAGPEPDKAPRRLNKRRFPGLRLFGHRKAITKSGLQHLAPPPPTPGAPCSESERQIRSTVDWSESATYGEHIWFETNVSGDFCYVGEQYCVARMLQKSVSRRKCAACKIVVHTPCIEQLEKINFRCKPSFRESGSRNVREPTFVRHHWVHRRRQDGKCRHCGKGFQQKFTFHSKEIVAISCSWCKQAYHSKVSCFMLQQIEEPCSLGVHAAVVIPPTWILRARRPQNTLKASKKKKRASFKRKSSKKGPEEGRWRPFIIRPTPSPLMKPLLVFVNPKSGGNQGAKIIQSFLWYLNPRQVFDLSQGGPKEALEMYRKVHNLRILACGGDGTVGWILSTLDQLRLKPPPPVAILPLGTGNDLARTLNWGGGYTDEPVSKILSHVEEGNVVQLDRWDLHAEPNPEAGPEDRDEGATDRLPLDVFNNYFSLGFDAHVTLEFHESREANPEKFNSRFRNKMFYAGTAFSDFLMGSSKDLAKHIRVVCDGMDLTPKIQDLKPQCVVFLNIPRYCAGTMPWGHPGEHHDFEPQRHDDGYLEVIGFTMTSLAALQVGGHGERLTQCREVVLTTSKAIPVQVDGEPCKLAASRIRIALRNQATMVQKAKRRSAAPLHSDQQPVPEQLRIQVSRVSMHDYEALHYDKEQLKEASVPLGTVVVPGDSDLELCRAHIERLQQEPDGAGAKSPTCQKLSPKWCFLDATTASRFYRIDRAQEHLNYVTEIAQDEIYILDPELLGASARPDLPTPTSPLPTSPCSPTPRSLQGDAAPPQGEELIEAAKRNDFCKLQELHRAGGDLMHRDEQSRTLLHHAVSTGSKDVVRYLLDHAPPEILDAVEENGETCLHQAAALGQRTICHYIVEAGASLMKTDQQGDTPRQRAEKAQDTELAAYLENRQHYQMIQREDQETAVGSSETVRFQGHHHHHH

SMILES | IC50 (human DGKα) [µM] | IC50 (human DGKζ) [nM] | EC50 (Human venous whole blood) [nM] | EC50 (Human venous whole blood; Homo sapiens, 24 h) [nM]
C[C@@H]1CN(c2cc(=O)n(C)c3ccc(C#N)nc23)[C@@H](C)CN1C(c1ccc(F)cc1)c1ccc(P(C)(C)=O)cc1 (single isomer, unassigned) [Example 1292] | 8 | 4100 | – | 12000
CC(=O)N1CC(c2noc(C(c3ccc(F)cc3)N3C[C@H](C)N(c4cc(=O)n(C)c5ccc(C#N)nc45)C[C@H]3C)n2)C1 (single isomer, unassigned) [Example 1296] | 2.4 | 5000 | – | 20000
C[C@@H]1CN(c2cc(=O)n(C)c3ccc(C#N)nc23)[C@@H](C)CN1C(c1ccc(F)cc1)c1nc(C2CN(C)C2)no1 (single isomer, unassigned) [Example 1298] | 2.6 | 2700 | – | 13000
C[C@@H]1CN(c2cc(=O)n(C)c3ccc(C#N)nc23)[C@@H](C)CN1C(c1ccc(F)cc1)c1nc(C2CN(C)C2)no1 (single isomer, unassigned) [Example 1299] | 89 | 26000 | 15000 | –
C[C@@H]1CN(c2cc(=O)n(C)c3ccc(C#N)nc23)[C@@H](C)CN1C(c1ccc(F)cc1)C1CCS(=O)(=O)CC1 (single isomer, unassigned) [Example 1300] | 14 | 1800 | – | 7000
COCCOc1cc(C(C)N2C[C@H](C)N(c3cc(=O)n(C)c4ccc(C#N)nc34)C[C@H]2C)ccc1OC (single isomer, unassigned) [Example 1302] | 130 | 6600 | – | 20000
COCCOc1cc(C(C)N2C[C@H](C)N(c3cc(=O)n(C)c4ccc(C#N)nc34)C[C@H]2C)ccc1OC (single isomer, unassigned) [Example 1303] | 65 | 2900 | – | 20000
CC(c1nc(C2CC2)no1)N1C[C@H](C)N(c2c(C#N)c(=O)n(C)c3ccc(C#N)nc23)C[C@H]1C (single isomer, unassigned) [Example 1306] | 9.4 | 1100 | – | 2900
CC(c1nc(C2CC2)no1)N1C[C@H](C)N(c2c(C#N)c(=O)n(C)c3ccc(C#N)nc23)C[C@H]1C (single isomer, unassigned) [Example 1307] | 5.6 | 14000 | – | 20000
C[C@@H]1CN(c2cc(=O)n(C)c3ccc(C#N)nc23)[C@@H](C)CN1C(c1ccc(F)cc1)C(C)(C)O (single isomer, unassigned) [Example 1308] | 20 | 2200 | 2100 | –
C[C@@H]1CN(c2cc(=O)n(C)c3ccc(C#N)nc23)[C@@H](C)CN1C(c1ccc(F)cc1)C(C)(C)O (single isomer, unassigned) [Example 1309] | 4.6 | 13000 | 7900 | –
C[C@@H]1CN(c2cc(=O)n(C)c3ccc(C#N)nc23)[C@@H](C)CN1C(c1ccc(F)cc1)C(F)(F)CO (single isomer, unassigned) [Example 1310] | 6.2 | 7500 | – | 3600
C[C@@H]1CN(c2cc(=O)n(C)c3ccc(C#N)nc23)[C@@H](C)CN1C(c1ccc(F)cc1)C(F)(F)CO (single isomer, unassigned) [Example 1311] | 120 | 19000 | – | 11000
COCC(F)(F)C(c1ccc(F)cc1)N1C[C@H](C)N(c2cc(=O)n(C)c3ccc(C#N)nc23)C[C@H]1C (single isomer, unassigned) [Example 1313] | 2.2 | 5300 | – | 4800
COCc1cc(F)ccc1C(C)N1C[C@H](C)N(c2cc(=O)n(C)c3ccc(C#N)nc23)C[C@H]1C (single isomer, unassigned) [Example 1314] | 10 | 49 | – | 460
COCc1cc(F)ccc1C(C)N1C[C@H](C)N(c2cc(=O)n(C)c3ccc(C#N)nc23)C[C@H]1C (single isomer, unassigned) [Example 1315] | 79 | 1400 | – | 20000
COCc1cc(C(C)N2C[C@H](C)N(c3cc(=O)n(C)c4ccc(C#N)nc34)C[C@H]2C)ccc1F (single isomer, unassigned) [Example 1316] | 1.8 | 18 | – | 4500
COCc1cc(C(C)N2C[C@H](C)N(c3cc(=O)n(C)c4ccc(C#N)nc34)C[C@H]2C)ccc1F (single isomer, unassigned) [Example 1317] | 8 | 970 | 2900 | –
COCCOc1cc(C(C)N2C[C@H](C)N(c3cc(=O)n(C)c4ccc(C#N)nc34)C[C@H]2C)ccc1C#N (single isomer, unassigned) [Example 1320] | 75 | 160 | – | 7000
COCCOc1cc(C(C)N2C[C@H](C)N(c3cc(=O)n(C)c4ccc(C#N)nc34)C[C@H]2C)ccc1C#N (single isomer, unassigned) [Example 1321] | 7.5 | 310 | – | 3000
CC(C)Oc1ccc(C(C)N2C[C@H](C)N(c3cc(=O)n(C)c4ccc(C#N)nc34)C[C@H]2C)cn1 (single isomer, unassigned) [Example 1324] | 12 | 140 | 690 | –
CC[C@@H]1CN(c2c(F)c(=O)n(C)c3ccc(C#N)nc23)[C@@H](C)CN1C(C)c1ccc(OC(F)(F)F)cc1 (single isomer, unassigned) [Example 1328] | 4.9 | 1500 | – | 3400
C[C@@H]1CN(c2cc(=O)[nH]c3ccc(C#N)nc23)[C@@H](C)CN1C(c1ccc(F)cc1)c1ccc(C#N)cc1 (single isomer, unassigned) [Example 1337] | 1.8 | 8200 | – | 2700
CC[C@@H]1CN(c2cc(=O)n(C)c3ccc(C#N)nc23)[C@@H](C)CN1C(C)c1ccc(C2CC2)cc1F (single isomer, unassigned) [Example 1341] | 4.4 | 1400 | 2000 | –

The next compounds have a lower IC50 (human DGKα) than those just listed; values first:

IC50 (human DGKα) [µM] | IC50 (human DGKζ) [nM] | SMILES | EC50 (Human venous whole blood) [nM] | EC50 (Human venous whole blood; Homo sapiens, 24 h) [nM]
0.038 | 100 | C[C@@H]1CN(c2cc(=O)n(C)c3ccc(C#N)nc23)[C@@H](C)CN1C(c1ccc(Cl)cc1)c1nc(C2CC2)no1 (single isomer, unassigned) [Example 1286] | 270 | –
0.22 | 92 | CC(=O)N1CC(c2noc(C(c3ccc(F)cc3)N3C[C@H](C)N(c4cc(=O)n(C)c5ccc(C#N)nc45)C[C@H]3C)n2)C1 (single isomer, unassigned) [Example 1297] | – | 2700
0.1 | 150 | COCC(F)(F)C(c1ccc(F)cc1)N1C[C@H](C)N(c2cc(=O)n(C)c3ccc(C#N)nc23)C[C@H]1C (single isomer, unassigned) [Example 1312] | – | 330
0.0062 | 34 | CSCC(c1ccc(F)cc1)N1C[C@H](C)N(c2cc(=O)n(C)c3ccc(C#N)nc23)C[C@H]1C (single isomer, unassigned) [Example 1318] | – | 88
1.3 | 910 | CC(C)Oc1ccc(C(C)N2C[C@H](C)N(c3cc(=O)n(C)c4ccc(C#N)nc34)C[C@H]2C)cn1 (single isomer, unassigned) [Example 1325] | 1800 | –
1.2 | 470 | C[C@@H]1CN(c2cc(=O)n(C)c3ccc(C#N)nc23)[C@@H](C)CN1C(Cc1nc(C2CC2)no1)c1ccc(F)cc1 (single isomer, unassigned) [Example 1326] | 1700 | –
0.2 | 290 | C[C@@H]1CN(c2cc(=O)n(C)c3ccc(C#N)nc23)[C@@H](C)CN1C(Cc1nc(C2CC2)no1)c1ccc(F)cc1 (single isomer, unassigned) [Example 1327] | 180 | –
1.5 | 26000 | CC[C@@H]1CN(c2c(F)c(=O)n(C)c3ccc(C#N)nc23)[C@@H](C)CN1C(C)c1ccc(OC(F)(F)F)cc1 (single isomer, unassigned) [Example 1329] | 3600 | –
0.37 | 160 | C[C@@H]1CN(c2cc(=O)n(C)c3ccc(C#N)nc23)[C@@H](C)CN1C(c1ccc(F)cc1)c1csc(C(F)(F)F)n1 (single isomer, unassigned) [Example 1333] | – | 310
0.11 | 140 | C[C@@H]1CN(c2cc(=O)n(C)c3ccc(C#N)nc23)[C@@H](C)CN1C(c1ccc(F)cc1)c1csc(C(F)(F)F)n1 (single isomer, unassigned) [Example 1334] | 260 | –
0.069 | 29 | CC[C@@H]1CN(c2cc(=O)n(C)c3ccc(C#N)nc23)[C@@H](C)CN1C(c1ccc(F)cc1)c1nc(C2CC2)cs1 (single isomer, unassigned) [Example 1338] | – | 130
0.27 | 160 | CC[C@@H]1CN(c2cc(=O)n(C)c3ccc(C#N)nc23)[C@@H](C)CN1C(c1ccc(F)cc1)c1nc(C2CC2)cs1 (single isomer, unassigned) [Example 1339] | 100 | –
0.63 | 40 | CC[C@@H]1CN(c2cc(=O)n(C)c3ccc(C#N)nc23)[C@@H](C)CN1C(C)c1ccc(C2CC2)cc1F (single isomer, unassigned) [Example 1340] | 80 | –
0.041 | 75 | CC[C@@H]1CN(c2cc(=O)n(C)c3ccc(C#N)nc23)[C@@H](C)CN1C(C)c1ccc(C#N)cc1 (single isomer, unassigned) [Example 1345] | 480 | –
